From patent publication US20210128529A1, “DRUG CONTAINING PYRAZOLONE DERIVATIVE” (NOBELPHARMA CO., LTD., priority 2017, published 2021) come the findings set out here.

Values after ≈ are worked out from the molar mass of the structure shown.

This data set is described as follows: Saturation solubility of edaravone in water. It counts as physicochemical.

A word on the solubility: it is the dissolved amount per volume that the medium holds. Regarding `CC1=NN(c2ccccc2)C(=O)C1` [edaravone, 3-Methyl-1-phenyl-2-pyrazolin-5-one], the concentration in solution (solubility) was 2 mg/mL (≈ 11.5 mM).
